# Results: PubChem BioAssay (NCI)
#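 Five concentrations, 48 hours, 96-well plates. Definition used: TGI = concentration required for complete inhibition of growth.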 Where a SMILES comes first, the peptide text is derived from it. [ ]: non-standard residue; d: D form. The star is where a group is joined. Tyr(3-Br) = N[C@@H](Cc1ccc(O)c(Br)c1)C(=O)O; Boc = CC(C)(C)OC(=O)*
# How the values were obtained:
# Assay in all cases: inhibition of tumour cell growth, NCI panel, 48 h
# HT29 colon = test system: HT29 colon
# MOLT-4 leukemia = test system: MOLT-4 leukemia
# MCF7 breast = test system: MCF7 breast
# SF-539 CNS = test system: SF-539 CNS
# SF-268 CNS = test system: SF-268 CNS
# SR leukemia = test system: SR leukemia
# NCI/ADR-RES ovarian = test system: NCI/ADR-RES ovarian
# RPMI-8226 leukemia = test system: RPMI-8226 leukemia
# HCT-116 colon = test system: HCT-116 colon
# LOX IMVI melanoma = test system: LOX IMVI melanoma
Compound,TGI (HT29 colon) [µM],TGI (MOLT-4 leukemia) [µM],TGI (MCF7 breast) [µM],TGI (SF-539 CNS) [µM],TGI (SF-268 CNS) [µM],TGI (SR leukemia) [µM],TGI (NCI/ADR-RES ovarian) [µM],TGI (RPMI-8226 leukemia) [µM],TGI (HCT-116 colon) [µM],TGI (LOX IMVI melanoma) [µM]
CCOc1ccc(NC(=O)/C(=N\NC(C)(C)C)C2C(=O)Nc3ccccc3S2=O)cc1 (configuration not stated),> 100,> 100,> 100,> 100,> 100,> 100,> 100,> 100,> 100,
C=C1C(=O)C[C@@]23CCC[C@@]12CC(OCOC)C3 (some centres not stated),4.41,9.93,3.74,9.5,17.5,,9.5,9.8,6,3.87
COc1ccc(C2Oc3cc(OC)c(O)c(C)c3[C@H]2C)cc1 (some centres not stated),> 100,89.3,,> 100,> 100,,,,> 100,> 100
CC(C)CCC[C@@H](C)C1CCC2[C@@H]3CC=C4C[C@@H](C(=O)NCC[N+](C)(C)CCCS(=O)(=O)[O-])CC[C@]4(C)C3CC[C@@]21C (some centres not stated),33,35.1,,36.6,37.8,,,41.5,30.9,25.2
CS(=O)(=O)c1c(N)c2nc(Cl)cn2c2nc3ccccc3nc12,> 100,> 100,,> 100,> 100,> 100,,> 100,> 100,> 100
C=C1C(=O)OC2/C=C(/C)C3CC(O)C(C)(CC(OC(=O)/C(C)=C/C)C12)O3 (configuration not stated),13.1,> 26.8,,4.86,14.4,> 24,,> 22.4,3.08,4.4
CN1CCCCC(C#N)(c2ccccc2)CC1 (configuration not stated),> 100,> 100,> 100,,> 100,> 100,> 100,> 100,> 100,
COC(=O)[C@H](Cc1ccc(O)c(Br)c1)NC(=O)[C@H](Cc1ccc(O)cc1)NC(=O)OC(C)(C)C (Boc-Tyr-[Tyr(3-Br)]-OMe),> 100,> 100,> 100,94.9,> 100,> 100,> 100,91,> 100,42.6
C/C=C1/CN2CCC3(O)c4ccccc4N4C=C(C(=O)OC)C1CC2C43O (configuration not stated),> 100,> 100,> 100,> 100,> 100,> 100,> 100,> 100,> 100,> 100
c1ccc(C2=NOC3(c4ccccc4)SC4CCCCC4CN23)cc1 (configuration not stated),> 100,51.3,,39.2,95.5,> 100,,95.4,50.4,34
CC(C)(C)NC(=O)NC12CC3CC(CC(F)(C3)C1)C2,> 100,> 100,,> 100,,,,> 100,> 100,> 100
O=c1[nH]c2cc([N+](=O)[O-])ccc2nc1/C(=N/Nc1ccccc1)C(O)c1ccc(C(O)/C(=N\Nc2ccccc2)c2cnc3cc([N+](=O)[O-])ccc3n2)cc1 (configuration not stated),> 100,> 100,,> 100,> 100,> 100,,> 100,> 100,
CCN(CC)CCCNc1ncc(C)c2[nH]c3ccncc3c12,26.2,18.4,17.4,20.9,32.4,,> 100,> 100,30.3,14.9
c1ccc(P(CCP(c2ccccn2)c2ccccn2)c2ccccc2)cc1,> 100,> 100,> 100,> 100,,> 100,> 100,40.6,> 100,> 100
O=C(O)CS,> 100,> 100,,> 100,> 100,> 100,,> 100,> 100,> 100
COC(=O)c1cccc(N[C@@H]2c3cc4c(cc3C(c3cc(OC)c(O)c(OC)c3)[C@H]3C(=O)OCC32)OCO4)c1 (some centres not stated),16,1.36,> 67.7,3.64,> 42.5,,> 85.1,> 20.2,21.9,11.3
CN(CCO)c1nc(N)cc(=O)[nH]1,> 100,> 100,,> 100,> 100,> 100,,> 100,> 100,> 100
Cc1oc(N)c(S(=O)(=O)c2ccc(Cl)cc2)c1C,> 100,> 100,> 100,64.2,> 100,> 100,> 100,> 100,> 100,
S=P1(N2CCCCC2)Oc2ccc3ccccc3c2-c2c(ccc3ccccc23)O1,> 100,> 100,> 100,> 100,> 100,,> 100,> 100,> 100,> 100
